Results published in patent US20060128608A1, “Novel chemical compounds and their use” (priority 2002, published 2006).
Values after ≈ are worked out from the molar mass of the structure shown.

What was measured:
[1] = test system: P.aeruginosa ATCC27853; test: Antibiotic activity: minimum inhibitory concentration (MIC); format: cell-based; settings: strain ATCC27853
Description: (§1) Antibiotic activities were determined using measurement of minimum inhibitory concentrations by standard procedures referring to the Manual of Commercial Methods in Clinical Microbiology. Ed. Allan L. Truant. ASM Press (2002) and are reported as concentrations (μM).

[2] = test system: E.coli ATCC25922; test: as above; format: cell-based; settings: Escherichia coli; strain ATCC25922
Description: as §1

Compound	MIC ([1]; Pseudomonas aeruginosa) [µM]	MIC [1] [µM]	MIC [2] [µM]
NCC[C@H](O)C(=O)N[C@@H]1C[C@H](N)[C@@H](O[C@H]2O[C@H](CN)[C@@H](O)[C@H](O)[C@H]2O)[C@H](O)[C@H]1O[C@H]1O[C@H](CO)[C@@H](O)[C@H](N)[C@H]1O [Amikacin, reference compound]	7.5 (≈ 4.39 µg/mL)	–	–
CCCCCCCCCCCCCCCC(=O)OCC1OC(OC2C(N)CC(N)C(OC3OC(CN)C(O)CC3N)C2O)C(O)C(N)C1O (stereo not drawn) [Compound 25, Tobramycin 6″-Palmitoyl Ester]	–	16 (≈ 11.3 µg/mL)	–
NCC1OC(OC2C(N)CC(N)C(OC3OC4COC(=O)CCCCCCCCCCC(=O)OC4C(N)C3O)C2O)C(N)CC1O (stereo not drawn) [Compound 30]	64 (≈ 42.4 µg/mL)	–	–
CCCCCCC(=O)OCC1OC(OC2C(N)CC(N)C(OC3OC(CN)C(OC(=O)CCCCCC)CC3N)C2O)C(OC(=O)CCCCCC)C(N)C1OC(=O)CCCCCC (stereo not drawn) [Compound 31]	32 (≈ 29.3 µg/mL)	–	–
NC1CC(O)C(CNC(=O)C[C@H](N)C(=O)O)OC1OC1C(N)CC(N)C(OC2OC(CO)C(O)C(N)C2O)C1O (stereo partly drawn) [Compound 32]	> 64	–	–
NC1CC(O)C(CNC(=O)[C@@H](N)CC(=O)O)OC1OC1C(N)CC(N)C(OC2OC(CO)C(O)C(N)C2O)C1O (stereo partly drawn) [Compound 33]	> 64	–	> 32
NC[C@H]1O[C@H](O[C@H]2[C@H](O)[C@@H](O[C@H]3O[C@H](CO)[C@@H](O)[C@H](N)[C@H]3O)[C@H](N)C[C@@H]2N)[C@H](N)C[C@@H]1O [Tobramycin, reference compound]	2 (≈ 0.935 µg/mL)	–	–
Neomycin [reference compound]	–	30	–
